Molecules are shown by their SMILES. Like-named read-outs stand apart in the source and are kept apart here.

Experiment [1] relates to T1, Plasmodium falciparum 3D7.
T1 construct: 3D7 parental line, asexual blood stage
As to the kind of experiment: microbe, parasite or virus in culture. The arrangement: species or system P. falciparum 3D7 in human erythrocytes; Asexual blood stage growth inhibition dose response of parental 3D7 parasites, EC50. The conditions noted are these: 3D7, Erythrocyte. The source says:
Fig. 1 Gene-edited PfACS10 and PfACS11 lines phenocopy parasite lines selected to become resistant to a range of antiplasmodial chemotypes. a Chemical structures of the compounds used in drug selections. b–d Dose response curves for a representative example of the parental 3D7 line (black), the selected lines (ACS11E668K_S, ACS11F387V_S, and ACS10M300I_S) and the genetically edited lines (ACS11E668K_C, ACS11F387V_C, and ACS10M300I_C) against the compound used to select for the resistant lines. At least three biological replicates were run for each strain in technical triplicates. Shown are the average ±SD and the non-linear regression curve fit for one biological assay run in triplicate. Statistical significances for EC50 are reported in Supplementary Data 1 and source data are provided as a Source Data file. Previous work by the MalDA consortium identified MMV019719 and MMV665924 as two new phenotypic hits from the chemically diverse Medicines for Malaria Venture (MMV) Malaria Box[8],[12]. […] To verify the role of these mutations in conferring resistance to these two compounds (resistance is defined here as a more than 2-fold shift in EC50 values in in vitro culture compared to the parental line), we used CRISPR/Cas9 technology to perform allelic replacements of a subset of the mutations observed (Supplementary Fig. 1 and Supplementary Table 1). Using the 3D7 parental line, we introduced the individual point mutations F387V or E668K into PfACS11 and M300I into PfACS10, yielding the gene-edited lines ACS11F387V_C, ACS11E668K_C, and ACS10M300I_C. These parasites phenocopied the increase in EC50 values seen in drug-selected compared to wildtype parasites (Fig. 1a–c and Supplementary Data 1). These findings confirm that the mutations in PfACS10 and PfACS11 identified by resistance selections with MMV019719 and MMV665924 are sufficient to reduce susceptibility to these compounds. […] MMV019719, MMV665924, and MMV897615 were freely available as part of the Medicines for Malaria Venture’s (MMV) Malaria Box. Triacsin C was purchased from Sigma-Aldrich (St. Louis, MO, ref. T4540). The 3D7 P. falciparum strain was originally obtained through MR4 as part of the BEI Resources Repository, NIAID, NIH: 3D7, MRA-102, deposited by D. J. Carucci. We also used 3D7- IG06 (a fast-growing 3D7 clone)[64] donated by Daniel Goldberg and Dd2-Polδ[23] donated by Marcus Lee. The Malawi parasites (CF04.008 10B and CF04.009 6D and 1 G, two different patient isolates that were subcloned after culture adaption) were kindly donated by Danny Milner[26]. Parasites were cultured by standard methods[65] in RPMI 1640 medium supplemented with 28 mM NaHCO3, 25 mM HEPES, 400 μM hypoxanthine, 25 μg/mL gentamicin, and 0.5% AlbuMAX II (Life Technologies, Carlsbad, CA 11021-045). The human erythrocytes were sourced ethically, and their research use was in accord with the terms of approved protocol.

Experiment [2] deals with T2, Plasmodium falciparum PolD (Dd2-Polδ).
T2 construct: Dd2-Polδ parental hypermutator line, wild-type PfACS10, asexual blood stage
Kind of experiment: microbe, parasite or virus in culture. The arrangement: species or system P. falciparum Dd2-Polδ in human erythrocytes; Parasite survival dose response by flow cytometry with SYBR Green and MitoTracker Deep Red, EC50. The conditions noted are these: DD2, Erythrocyte, 72 h. Here is the method: To define the EC50 of parasites, ring-stage cultures at 0.2% parasitemia and 1% hematocrit were exposed for 72 h to a range of ten drug concentrations that were 2-fold serially diluted in duplicates along with DMSO controls. Parasite survival was assessed by flow cytometry on an iQue flow cytometer (Sartorius) using SYBR Green and MitoTracker Deep Red FM (Life Technologies) as nuclear stain and vital dyes respectively. Fig. 2 Mutations in PfACS10 can cause collateral sensitivity to distinct chemotypes. Mean EC50 ± SD values for strains containing mutations in PfACS10 selected in the Dd2-Polδ line (A268D, A268V, and F427L) and in 3D7 (M300I), are shown for MMV897615, MMV665924, and MMV019719. Assays were run in triplicate and at least repeated twice. ANOVA with Dunnett post-tests compared mutations in the Dd2-Polδ line, a p < 0.001, b p = 0.005. Two-sided unpaired Student’s t test compared 3D7 and ACS10M300I_C. c p = 0.0003, d p = 0.0000008, e p = 0.0016. Source data are provided as a Source Data file and in Supplementary Data 1. More recently, we performed selections in a hypermutator P. falciparum line (Dd2-Polδ[23]) with MMV897615, which yielded three novel mutations in PfACS10 that confer at least a seven-fold increase in resistance (ACS10A268D, ACS10A268V, and ACS10F427L, Fig. 2 and Supplementary Data 1 and 3). […]

For `CCC/C=C/C/C=C/C=C/C=N/NN=O` [Triacsin C], in experiment [1] (read-out: Triacsin / EC50 [nM]), the EC50 was determined as 549 nM.

Consider `CCc1cccc(CNC(=O)c2nc3cccc(COCc4ccc(C(=O)O)cc4)c3c(=O)[nH]2)c1` [19f, MMV897615], for which the EC50 amounted to 39.6 nM in experiment [2] (read-out: MMV897615 / EC50 [nM] (b) / EC50 [nM] (c)) and 52.9 nM in experiment [1] (read-out: MMV897615 / EC50 [nM] (b)).

On to `COc1ccc(C(=O)C2CC2c2ccc(Cl)cc2)cc1` (stereo not drawn) [MMV665924], for which the EC50 in experiment [2] (read-out: MMV665924 / EC50 [nM] (a) / EC50 [nM] (c)) is 1360 nM; in experiment [1] (read-out: MMV665924 / EC50 [nM] (a)), 340 nM.

In the case of `C=C[C@H]1CN2CC[C@H]1C[C@H]2[C@H](O)c1ccnc2ccc(OC)cc12` [quinine], the EC50 in experiment [1] (read-out: Quinine (QN) / EC50 [nM]) is 37.3 nM.

In the case of `O=C1C(O)=C([C@H]2CC[C@H](c3ccc(Cl)cc3)CC2)C(=O)c2ccccc21` [atovaquone], the EC50 in experiment [1] (read-out: Atovaquone (ATQ) / EC50 [nM]) came out at 0.287 nM.

As for `CCN(CC)Cc1cc(Nc2ccnc3cc(Cl)ccc23)ccc1O` [amodiaquine], in experiment [1] (read-out: Amodiaquin (ADQ) / EC50 [nM]), the EC50 amounted to 4.34 nM.

As for `O[C@@H](c1cc(C(F)(F)F)nc2c(C(F)(F)F)cccc12)[C@H]1CCCCN1` (racemic) [mefloquine], the EC50 in experiment [1] (read-out: Mefloquine (MQ) / EC50 [nM]) was found to be 15.3 nM.

The record behind these values is article PMC10020447, “Potent acyl-CoA synthetase 10 inhibitors kill Plasmodium falciparum by disrupting triglyceride formation” (Nature Communications, 2023).
